Assays:
[1] = biological target: T1, recombinant human transglutaminase 2 (Homo sapiens, UniProt P21980); test: Transglutaminase assay (DCC-assay): incorporation of dansylcadaverine into dimethylcasein; assay type: biochemical; conditions: for IC50: recombinant human TG2 10 nM, dansylcadaverine incorporation into dimethylcasein, read-out: IC50 TG2
T1 construct: purchased Zedira T022
T1 sequence (P21980 1-687): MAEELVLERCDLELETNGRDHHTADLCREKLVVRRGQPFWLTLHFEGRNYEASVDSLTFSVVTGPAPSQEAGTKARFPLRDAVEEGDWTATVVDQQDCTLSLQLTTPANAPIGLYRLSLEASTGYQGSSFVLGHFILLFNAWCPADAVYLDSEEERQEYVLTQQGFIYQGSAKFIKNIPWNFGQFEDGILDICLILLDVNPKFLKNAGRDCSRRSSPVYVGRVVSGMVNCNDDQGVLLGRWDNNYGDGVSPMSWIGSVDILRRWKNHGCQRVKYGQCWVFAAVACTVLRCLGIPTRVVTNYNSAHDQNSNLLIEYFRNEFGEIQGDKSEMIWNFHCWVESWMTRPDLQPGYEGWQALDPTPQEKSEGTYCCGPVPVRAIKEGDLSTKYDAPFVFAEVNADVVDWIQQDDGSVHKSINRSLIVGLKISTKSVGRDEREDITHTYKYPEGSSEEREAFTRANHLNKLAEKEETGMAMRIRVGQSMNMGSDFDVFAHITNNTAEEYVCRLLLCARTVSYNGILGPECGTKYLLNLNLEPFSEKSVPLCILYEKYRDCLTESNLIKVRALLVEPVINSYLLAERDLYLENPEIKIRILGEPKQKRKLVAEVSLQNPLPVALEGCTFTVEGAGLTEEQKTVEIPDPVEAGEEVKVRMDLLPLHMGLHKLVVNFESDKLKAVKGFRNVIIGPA
Experimental: To illustrate the advantage of branched alkyl moieties over aromatic moieties, we refer to reference compounds Ref. 2 (ZED1227, U.S. Pat. No. 9,434,763 B2) and Ref. 3 (A8, ZED1047). Inhibition data were determined using the classical fluorescent transamidation assay (dansylcadaverine incorporation into methylated casein, DCC-assay) as described [Buchold, C.; Hils, M.; Gerlach, U.; Weber, J.; Pelzer, C.; Heil, A.; Aeschlimann, D.; Pasternack, R. Features of ZED1227: The First-In-Class Tissue Transglutaminase Inhibitor Undergoing Clinical Evaluation for the Treatment of Celiac Disease. Cells 2022, 11, 1667. https://doi.org/10.3390/cells11101667]. Casein is one of the best known high molecular weight (24 kDa) protein substrates for transglutaminases. Please note, the IC50 value of Ref. 3 (A8) published in U.S. Pat. No. 9,434,763 B2 cannot be compared to the present data, relying on a fluorogenic isopeptidase assay.
To this extent, inhibition data were determined using the classical fluorescent transamidation assay (dansylcadaverine incorporation into methylated casein, DCC-assay) as described in Büchold et al. [Büchold, C.; Hils, M.; Gerlach, U.; Weber, J.; Pelzer, C.; Heil, A.; Aeschlimann, D.; Pasternack, R. Features of ZED1227: The First-In-Class Tissue Transglutaminase Inhibitor Undergoing Clinical Evaluation for the Treatment of Celiac Disease. Cells 2022, 11, 1667. https://doi.org/10.3390/cells11101667]. Casein is one of the best known high molecular weight (24 kDa) protein substrates for transglutaminases. Inhibition data of the inventive compounds was compared with inhibition of compounds disclosed in U.S. Pat. No. 9,434,763 B2, particularly, compound A8, which is denoted herein as Reference 3. It is noteworthy that the IC50 values of compounds A8 published in U.S. Pat. No. 9,434,763 B2 and E16 from U.S. Pat. No. 11,072,634 B2 cannot be compared to the present data, relying on a fluorogenic isopeptidase assay.
For the determination of potency of inhibitors against tissue transglutaminase, the incorporation of dansylcadaverine into dimethylcasein (Zedira product T036, Lorand et al., Anal Biochem, 1971, 44:221-31) was measured using recombinant human transglutaminase 2 (Zedira Product T022).
The tissue transglutaminase is diluted in buffer (50 mM Tris-HCl, 7.5 mM CaCl2), 150 mM NaCl, pH=7.4). The final concentration of TG2 in the assay is 10 nM.
A 10 mM inhibitor stock solution is prepared in DMSO, and from this a serial 1:2-fold dilution series is prepared also in DMSO. Each of the initial dilutions is subsequently diluted 1:50-fold with buffer (50 mM Tris-HCl, 7.5 mM CaCl2), 150 mM NaCl, pH=7.4) to yield the final working dilutions containing 2% (v/v) DMSO.
15 μl of inhibitor working dilution are added per well of a 96 well microtiter plate. As control, 15 μl of a 2% (v/v) DMSO solution prepared using the buffer mentioned above are added per well.
Immediately before starting the assay, 600 μl transglutaminase working solution are added to 11.4 ml assay buffer (50 mM Tris-HCl, 10 mM CaCl2), 10 mM glutathione, 2.5% glycerol, 16.7 µM dansylcadaverine, 4 uM N,N-dimethylcasein, 200 mM NaCl, pH=8.0). 285 μl of this reaction mix are added per well containing the inhibitor.
Increase in fluorescence is measured using λex=330 nm and λem=500 nm at 37° C. for 30 min. A slope of the increase in fluorescence between 20 and 30 min is calculated for determination of the IC50 value (inhibitor concentration at which 50% of the initial activity is blocked).
Analysis of enzymatic activity is performed by calculation of the slope of an increase in fluorescence intensity. IC50 values are calculated by plotting the enzymatic activity (as percentage from control containing 2% DMSO instead of inhibitor) against the inhibitor concentration. IC50 is defined as the inhibitor concentration blocking 50% of initial enzyme activity.

[2] = logD by shake flask method (octanol / PBS pH 7.4, HPLC); assay type: physicochemical; conditions: octanol / PBS pH 7.4, shake flask
Experimental: In order to classify the inventive compounds according to their lipophilicity, LogD values (distribution coefficient) were determined by means of the well-established shake flask method, measuring the partition of a compound between an octanol and phosphate-buffered saline (PBS, pH 7.4) by HPLC.
The LogD is pH dependent and is a “predictor” for in-vivo properties. LogD combines lipophilicity (intrinsic structural property of the molecule, logP) and ionizability (pKa). Compounds with a moderate lipophilicity (LogD values from 0 to 3) are usually advantaged for oral absorption, being in balance between solubility and permeability. However, sophisticated formulation of a compound might improve oral bioavailability for highly lipophilic compounds.

[3] = Caco-2 permeability assay (CacoReady kit); assay type: in vitro ADME; conditions: human, Caco-2, Caco-2 barrier, CacoReady kit; above 1×10^−6 cm/s classified as permeable
Experimental: Permeability coefficients (Papp values) were obtained from Caco-2 barrier studies predicting oral/intestinal bioavailability of the tested compounds. The assays were performed by using CacoReady™ ready-to-use kits from ReadyCell according to the manufacturers protocol.

SMILES | IC50 [1] [nM] | logD [2] | Papp [3] [×10⁻⁶ cm/s] | fold more potent compared to Ref. 3 ([1]; DCC-assay, IC50 ratio versus Ref. 3 (A8)) [fold]
CNC(=O)C(=O)CC[C@H](NC(=O)c1cc2ccccc2s1)C(=O)Nc1cccn(CC(=O)NC2C3CC4CC(C3)CC2C4)c1=O (stereo partly drawn) | < 40 | 3 to 5 | 1 to 10 | 
CNC(=O)C(=O)CC[C@H](NC(=O)c1cc2cc(Br)ccc2s1)C(=O)Nc1cccn(CC(=O)NC2C3CC4CC(C3)CC2C4)c1=O (stereo partly drawn) | < 40 | 3 to 5 | 1 to 10 | 
CNC(=O)C(=O)CC[C@H](NC(=O)c1oc2ccccc2c1C)C(=O)Nc1cccn(CC(=O)NC23CC4CC5C2C[C@@H]2C[C@H]5C(C4)[C@H]3C2)c1=O (stereo in doubt) [II-104, (S)-N1-(1-(2-(diamantane-1-amino)-2-oxoethyl)-2-oxo-1,2-dihydropyridin-3-yl)-N6-methyl-2-(3-methylbenzofuran-2-carboxamido)-5-oxohexanediamide] | 40 to 400 | 1 to 3 | 1 to 10 | 
CNC(=O)C(=O)CC[C@H](NC(=O)c1cc2ccccc2o1)C(=O)Nc1cccn(CC(=O)NC2C3CC4CC(C3)CC2C4)c1=O (stereo partly drawn) [II-2, (S)-2-(benzofuran-2-carboxamido)-N1-(1-(2-(2-adamantylamino)-2-oxoethyl)-2-oxo-1,2-dihydropyridin-3-yl)-N6-methyl-5-oxohexanediamide] | < 40 | 1 to 3 | 1 to 10 | 
CNC(=O)C(=O)CC[C@H](NC(=O)c1oc2ccccc2c1Cl)C(=O)Nc1cccn(CC(=O)NC2C3CC4CC(C3)CC2C4)c1=O (stereo partly drawn) [II-4, (S)-2-(3-chlorobenzofuran-2-carboxamido)-N1-(1-(2-(2-adamantylamino)-2-oxoethyl)-2-oxo-1,2-dihydropyridin-3-yl)-N6-methyl-5-oxohexanediamide] | < 40 | 1 to 3 | 1 to 10 | 
CNC(=O)C(=O)CC[C@H](NC(=O)c1cc2c(Br)cccc2o1)C(=O)Nc1cccn(CC(=O)NC2C3CC4CC(C3)CC2C4)c1=O (stereo partly drawn) [II-5, (S)-2-(4-bromobenzofuran-2-carboxamido)-N1-(1-(2-(2-adamantylamino)-2-oxoethyl)-2-oxo-1,2-dihydropyridin-3-yl)-N6-methyl-5-oxohexanediamide] | < 40 | 3 to 5 | 1 to 10 | 
CNC(=O)C(=O)CC[C@H](NC(=O)c1cc2ccccc2[nH]1)C(=O)Nc1cccn(CC(=O)NC2C3CC4CC(C3)CC2C4)c1=O (stereo partly drawn) [II-9, (S)-2-(1H-indole-2-carboxamido)-N1-(1-(2-(2-adamantylamino)-2-oxoethyl)-2-oxo-1,2-dihydropyridin-3-yl)-N6-methyl-5-oxohexanediamide] | < 40 | 1 to 3 | 1 to 10 | 
CNC(=O)C(=O)CC[C@H](NC(=O)c1cc2c(F)c(F)ccc2[nH]1)C(=O)Nc1cccn(CC(=O)NC2C3CC4CC(C3)CC2C4)c1=O (stereo partly drawn) [II-10, (S)-2-(4,5-difluoro-1H-indole-2-carboxamido)-N1-(1-(2-(2-adamantylamino)-2-oxoethyl)-2-oxo-1,2-dihydropyridin-3-yl)-N6-methyl-5-oxohexanediamide] | < 40 | 3 to 5 | < 1 | 
CNC(=O)C(=O)CC[C@H](NC(=O)c1[nH]c2ccccc2c1C)C(=O)Nc1cccn(CC(=O)NC2C3CC4CC(C3)CC2C4)c1=O (stereo partly drawn) [II-11, (S)-N1-(1-(2-(2-adamantylamino)-2-oxoethyl)-2-oxo-1,2-dihydropyridin-3-yl)-N6-methyl-2-(3-methyl-1H-indole-2-carboxamido)-5-oxohexanediamide] | < 40 | 1 to 3 | 1 to 10 | 
CNC(=O)C(=O)CC[C@H](NC(=O)c1nc2ccccc2[nH]1)C(=O)Nc1cccn(CC(=O)NC2C3CC4CC(C3)CC2C4)c1=O (stereo partly drawn) [II-12, (S)-2-(1H-benzo[d]imidazole-2-carboxamido)-N1-(1-(2-(2-adamantylamino)-2-oxoethyl)-2-oxo-1,2-dihydropyridin-3-yl)-N6-methyl-5-oxohexanediamide] | 40 to 400 | 3 to 5 | < 1 | 
CNC(=O)C(=O)CC[C@H](NC(=O)C1Cc2ccccc2C1)C(=O)Nc1cccn(CC(=O)NC2C3CC4CC(C3)CC2C4)c1=O (stereo partly drawn) [II-13, (S)-2-(2,3-dihydro-1H-indene-2-carboxamido)-N1-(1-(2-(2-adamantylamino)-2-oxoethyl)-2-oxo-1,2-dihydropyridin-3-yl)-N6-methyl-5-oxohexanediamide] | < 40 | 1 to 3 | 1 to 10 | 
CNC(=O)C(=O)CC[C@H](NC(=O)c1sc(Br)nc1C)C(=O)Nc1cccn(CC(=O)NC2C3CC4CC(C3)CC2C4)c1=O (stereo partly drawn) [II-14, (S)--(2-bromo-4-methylthiazole-5-carboxamido)-N1-(1-(2-(2-adamantylamino)-2-oxoethyl)-2-oxo-1,2-dihydropyridin-3-yl)-N6-methyl-5-oxohexanediamide] | < 40 | 1 to 3 | 1 to 10 | 
CNC(=O)C(=O)CC[C@H](NC(=O)c1cn[nH]n1)C(=O)Nc1cccn(CC(=O)NC2C3CC4CC(C3)CC2C4)c1=O (stereo partly drawn) [II-132, (S)-N1-(1-(2-(2-adamantylamino)-2-oxoethyl)-2-oxo-1,2-dihydropyridin-3-yl)-N6-methyl-5-oxo-2-(1H-1,2,3-triazole-4-carboxamido)hexanediamide] | 400 to 2500 |  |  | 
CCC(CC)CNC(=O)Cn1cccc(NC(=O)[C@H](CC/C=C/C(=O)OC)NC(=O)c2cncn2C)c1=O [Ref. 2, reference compound] | 40 to 400 |  |  | 80

Reference: patent publication US20240383856A1 (Zedira GmbH, priority 2021, published 2024)
